According to US4855284A, “Calcium and magnesium complexes of phytohemagglutinin-polyheteroglycans, their preparation and pharmaceutical formulations” (Intex Pharmazeutische Produkte AG, priority 1985, dated 1989):

What was measured:
[1] = test system: edema induced by carrageen in the rat paw; experiment: carrageen rat paw test (Winter), antiinflammatory action; format: in vivo, rat (female, CFY strain); settings: 10 mg/kg oral
[2] = test system: ulcers and mucosal edema in the stomach; experiment: alcohol ulcer test (Robert), cytoprotective action; format: in vivo, Wistar rats; settings: oral 500 mg/kg, 10 animals
Description: The cytoprotective action was tested by the alcohol ulcer test of A. J. E. Robert and coworkers, Am. J. Physiol. […] Liver Physiol. […] Usually, Wistar rats in groups with 10 animals in each are kept without food for 1 day and then treated once through a stomach tube with 1 to 2 ml of anhydrous ethanol which contains 0.5% hydrochloric acid.
After the death of the animals, the length of the resulting ulcers and the size of the resulting mucosal edema in the stomach are measured and compared with control animals not treated with the product. A basic aluminum complex of sucrose polysulfate (sucralfate, see below) was used for comparison.

| Compound | Inhibition in % (of swelling) [1] [%] | Inhibition in %, Edema [2] [%] | Inhibition in %, Ulcer [2] [%] |
| --- | --- | --- | --- |
| COc1ccc2c(c1)c(CC(=O)O)c(C)n2C(=O)c1ccc(Cl)cc1 [Indomethacin] | 46 |  |  |
| Sucralfate |  | 79 | 56 |
